Consider 34 molecules from patent US20230025807A1 (priority 2019, published 2023).

Counter-ions that a name gives are not always drawn.

In one experiment the target is T1, Human CD38 (Homo sapiens, UniProt P28907).
T1 construct: purchased BPS Bioscience 79287
T1 sequence (P28907 1-300): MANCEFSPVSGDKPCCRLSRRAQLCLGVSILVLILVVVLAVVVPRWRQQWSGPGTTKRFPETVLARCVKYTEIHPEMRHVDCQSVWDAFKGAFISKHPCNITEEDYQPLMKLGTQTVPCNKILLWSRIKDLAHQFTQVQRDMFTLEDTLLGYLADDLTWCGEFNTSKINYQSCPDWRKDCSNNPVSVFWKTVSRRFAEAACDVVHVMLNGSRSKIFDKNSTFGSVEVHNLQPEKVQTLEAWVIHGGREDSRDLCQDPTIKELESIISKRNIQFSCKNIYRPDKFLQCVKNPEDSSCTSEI
The experiment is described as follows: biochemical.
Settings: not given
How it is done:
CD38 hydrolase buffer (4×) was thawed on ice and 1×CD38 hydrolase buffer was prepared by diluting 4×CD38 hydrolase buffer with water. CD38 hydrolase enzyme was diluted to […] with 1×CD38 hydrolase buffer (10 ng/well). Master mix was prepared by mixing equal volumes of water and CD38 hydrolase buffer (4×) and 10 μl of the mix was added to all the wells. Following master mix addition, 10 μl of the inhibitors and 20 μl of CD38 hydrolase enzyme were added to the wells. For wells designated blank, 10 μl and 20 μl of 1×CD38 hydrolase buffer was added respectively in place of CD38 enzyme and inhibitors. The plate was covered and incubated 30 min at room temperature with slow shaking at 400 rpm. After 30 min incubation, the plate was removed and 10 μl of diluted ε-NAD substrate was added to all the wells. The plate is incubated for 10 min, spun at 1200 rpm for 30 secs to remove bubbles and read in Tecan Spark using a fluorometer setting of excitation 300 nm and emission 410 nm. The reading for the blank was subtracted from all the values. IC50 for the test compounds were determined by using Graphpad prism software v7.0.
As to `COCCO[C@H]1CC[C@H](NC(=O)c2cc(-c3cncs3)cc3[nH]ccc23)C1` (racemic) [Example 34, N-(Trans-3-(2-methoxyethoxy)cyclopentyl)-6-(thiazol-5-yl)-1H-indole-4-carboxamide], the IC50 (as a rule, the concentration at which inhibition is half-maximal) was 265 nM.

In the case of `COCCO[C@H]1CC[C@H](NC(=O)c2cc(-n3cccn3)cc3cc[nH]c23)CC1` [Example 2, N-((1r,4r)-4-(2-methoxyethoxy)cyclohexyl)-5-(1H-pyrazol-1-yl)-1H-indole-7-carboxamide], the IC50 was greater than 100000 nM.

Molecule `COCCO[C@H]1CC[C@H](NC(=O)c2cc(-c3ncc[nH]3)cc3cc[nH]c23)CC1` [Example 6, 5-(1H-imidazol-2-yl)-N-((1r,4r)-4-(2-methoxyethoxy)cyclohexyl)-1H-indole-7-carboxamide] returned an IC50 greater than 100000 nM.

Molecule `COCCO[C@H]1CC[C@H](NC(=O)c2cc(-n3ccnc3)cc3c(C(=O)O)c[nH]c23)CC1` [Example 11, 5-(1H-imidazol-1-yl)-7-(((1r,4r)-4-(2-methoxyethoxy)cyclohexyl)carbamoyl)-1H-indole-3-carboxylic acid] came in with a 50% inhibitory concentration (IC50) of 580 nM.

`COCCO[C@H]1CC[C@H](NC(=O)c2cc(-n3ccnc3)cc3c(C=O)c[nH]c23)CC1` [Example 15, 3-formyl-5-(1H-imidazol-1-yl)-N-((1r,4r)-4-(2-methoxyethoxy)cyclohexyl)-1H-indole-7-carboxamide]: 18000 nM corresponded to half-maximal inhibition (IC50).

In turn, `COCCO[C@H]1CC[C@H](NC(=O)c2cc(-n3ccnc3)cc3c(CN(C)C)c[nH]c23)CC1` [Example 16, 3-((dimethylamino)methyl)-5-(1H-imidazol-1-yl)-N-((1r,4r)-4-(2-methoxyethoxy)cyclohexyl)-1H-indole-7-carboxamide] displayed an IC50 of 800 nM.

In turn, `COCCO[C@H]1CC[C@H](NC(=O)c2cc(-n3ccnc3)cc3c(CN)c[nH]c23)CC1` [Example 17, 3-(aminomethyl)-5-(1H-imidazol-1-yl)-N-((1r,4r)-4-(2-methoxyethoxy)cyclohexyl)-1H-indole-7-carboxamide] displayed an IC50 of 890 nM.

The molecule `COCCO[C@H]1CC[C@H](NC(=O)c2cc(-c3cncs3)cc3c(C#N)c[nH]c23)CC1` [Example 20, 3-cyano-N-((1r,4r)-4-(2-methoxyethoxy)cyclohexyl)-5-(thiazol-5-yl)-1H-indole-7-carboxamide] gave an IC50 of 19 nM.

Consider `COCCO[C@H]1CC[C@H](NC(=O)c2cc(-n3ccnc3)cc3c(I)c[nH]c23)CC1` [Example 22, 5-(1H-imidazol-1-yl)-3-iodo-N-((1r,4r)-4-(2-methoxyethoxy)cyclohexyl)-1H-indole-7-carboxamide], for which the IC50 was determined as 169 nM.

As to `O=C(NC1CCS(=O)(=O)CC1)c1cc(-c2cncs2)cc2[nH]ccc12` [Example 24, N-(1,1-dioxidotetrahydro-2H-thiopyran-4-yl)-6-(thiazol-5-yl)-1H-indole-4-carboxamide], the IC50 came to 198 nM.

Turning to `O=C(NCc1c(F)cccc1C(F)(F)F)c1cc(-c2cncs2)cc2[nH]ccc12` [Example 25, N-(2-fluoro-6-(trifluoromethyl)benzyl)-6-(thiazol-5-yl)-1H-indole-4-carboxamide], the IC50 was determined as 78 nM.

`CS(=O)(=O)CCNC(=O)c1cc(-c2cncs2)cc2[nH]ccc12` [Example 26, N-(2-(methylsulfonyl)ethyl)-6-(thiazol-5-yl)-1H-indole-4-carboxamide]: the IC50 amounted to 1000 nM.

`O=C(NCC1CCOCC1)c1cc(-c2cncs2)cc2[nH]ccc12` [Example 27, N-((tetrahydro-2H-pyran-4-yl)methyl)-6-(thiazol-5-yl)-1H-indole-4-carboxamide]: 3700 nM corresponded to half-maximal inhibition (IC50).

Consider `O=C(NC12CC3CC(CC(O)(C3)C1)C2)c1cc(-c2cncs2)cc2[nH]ccc12` [Example 28, N-((1r,3s,5R,7S)-3-hydroxyadamantan-1-yl)-6-(thiazol-5-yl)-1H-indole-4-carboxamide], for which the midpoint of inhibition, the IC50, lay at 523 nM.

`CC(C)(O)[C@H]1CC[C@H](NC(=O)c2cc(-c3cncs3)cc3[nH]ccc23)CC1` [Example 29, N-((1r,4r)-4-(2-hydroxypropan-2-yl)cyclohexyl)-6-(thiazol-5-yl)-1H-indole-4-carboxamide]: the IC50 stood at 123 nM.

The molecule `O=C(N[C@@H]1CC[C@@H](O)C1)c1cc(-c2cncs2)cc2[nH]ccc12` [Example 31, N-((1R,3R)-3-hydroxycyclopentyl)-6-(thiazol-5-yl)-1H-indole-4-carboxamide] came in with an IC50 of 392 nM.

Regarding `COCCO[C@H]1C[C@@H](NC(=O)c2cc(-c3cncs3)cc3[nH]ccc23)C1` [Example 32, N-((1s,3s)-3-(2-methoxyethoxy)cyclobutyl)-6-(thiazol-5-yl)-1H-indole-4-carboxamide], the midpoint of inhibition, the IC50, lay at 3300 nM.

`O=C(NCc1ccc(N2CCOCC2)cc1)c1cc(-c2cncs2)cc2[nH]ccc12` [Example 33, N-(4-morpholinobenzyl)-6-(thiazol-5-yl)-1H-indole-4-carboxamide] registered an IC50 greater than 10000 nM.

`O=C(NC1CCNCC1)c1cc(-c2cncs2)cc2[nH]ccc12` [Example 35, N-(piperidin-4-yl)-6-(thiazol-5-yl)-1H-indole-4-carboxamide hydrochloride] registered an IC50 of 7800 nM.

For the molecule `CC1(O)CC(NC(=O)c2cc(-c3cncs3)cc3[nH]ccc23)C1` (stereo not shown) [Example 36, N-(3-hydroxy-3-methylcyclobutyl)-6-(thiazol-5-yl)-1H-indole-4-carboxamide], half-maximal inhibition (IC50) required 1500 nM.

For `CC(NC(=O)c1cc(-c2cncs2)cc2[nH]ccc12)c1ccccc1F` (stereo not shown) [Example 39, N-(1-(2-fluorophenyl)ethyl)-6-(thiazol-5-yl)-1H-indole-4-carboxamide], half-maximal inhibition (IC50) required 197 nM.

Molecule `C[C@H]1CCCC[C@H]1NC(=O)c1cc(-c2cncs2)cc2[nH]ccc12` [Example 40, N-((1R,2S)-2-methylcyclohexyl)-6-(thiazol-5-yl)-1H-indole-4-carboxamide] returned an IC50 of 78 nM.

As to `COCC(C)(C)NC(=O)c1cc(-c2cncs2)cc2[nH]ccc12` [Example 42, N-(1-methoxy-2-methylpropan-2-yl)-6-(thiazol-5-yl)-1H-indole-4-carboxamide], inhibition was half-maximal at 3600 nM (IC50).

As for `CC(C)(O)CNC(=O)c1cc(-c2cncs2)cc2[nH]ccc12` [Example 43, N-(2-hydroxy-2-methylpropyl)-6-(thiazol-5-yl)-1H-indole-4-carboxamide], the IC50 came out at 5100 nM.

Molecule `O=C(NC12CC3CC(CC(C3)C1)C2)c1cc(-c2cncs2)cc2[nH]ccc12` [Example 44, N-(adamantan-1-yl)-6-(thiazol-5-yl)-1H-indole-4-carboxamide] gave a half-maximal inhibitory concentration (IC50) of 393 nM.

`O=C(NC1CCOCC1)c1cc(-c2cncs2)cc2[nH]ccc12` [Example 45, N-(tetrahydro-2H-pyran-4-yl)-6-(thiazol-5-yl)-1H-indole-4-carboxamide] registered an IC50 of 664 nM.

Molecule `O=C(N[C@H]1C[C@H](O)C1)c1cc(-c2cncs2)cc2[nH]ccc12` [Example 46, N-((1r,3r)-3-hydroxycyclobutyl)-6-(thiazol-5-yl)-1H-indole-4-carboxamide] showed an IC50 of 678 nM.

In turn, `O=C(NC1CCCCC1)c1cc(-c2cncs2)cc2[nH]ccc12` [Example 47, N-cyclohexyl-6-(thiazol-5-yl)-1H-indole-4-carboxamide] gave an IC50 of 138 nM.

On to `COCCO[C@H]1CC[C@H](NC(=O)c2cc(-c3cncs3)cc3c2ccn3CC2COC2)CC1` [Example 50, N-((1r,4r)-4-(2-methoxyethoxy)cyclohexyl)-1-(oxetan-3-ylmethyl)-6-(thiazol-5-yl)-1H-indole-4-carboxamide], for which half-maximal inhibition (IC50) required 503 nM.

Molecule `COCCO[C@H]1CC[C@H](NC(=O)c2cc(-c3cncs3)cc3c2ccn3C(C)C)CC1` [Example 52, 1-isopropyl-N-((1r,4r)-4-(2-methoxyethoxy)cyclohexyl)-6-(thiazol-5-yl)-1H-indole-4-carboxamide] showed an IC50 of 1400 nM.

On to `COCCO[C@H]1CC[C@H](NC(=O)c2cc(-c3cncs3)cc3c2ccn3CC(C)(C)O)CC1` [Example 53, 1-(2-hydroxy-2-methylpropyl)-N-((1r,4r)-4-(2-methoxyethoxy)cyclohexyl)-6-(thiazol-5-yl)-1H-indole-4-carboxamide], for which the IC50 turned out to be 3000 nM.

The experiment is the same for the next values; noted with them: 30 min pre-incubation at room temperature, ε-NAD substrate 10 min, excitation 300 nm / emission 410 nm; read-out: hCD38 IC50.
With `COCCO[C@H]1C[C@H](NC(=O)c2cc(-c3cncs3)cc3[nH]ccc23)C1` [Example 30, N-((1r,3r)-3-(2-methoxyethoxy)cyclobutyl)-6-(thiazol-5-yl)-1H-indole-4-carboxamide], the IC50 stood at 761 nM.

With `COCCCO[C@H]1CC[C@H](NC(=O)c2cc(-c3cncs3)cc3[nH]ccc23)CC1` [Example 37, N-((1r,4r)-4-(3-methoxypropoxy)cyclohexyl)-6-(thiazol-5-yl)-1H-indole-4-carboxamide], the IC50 was determined as 63 nM.

For the molecule `O=C(N[C@H]1CC[C@H](O)CC1)c1cc(-c2cncs2)cc2[nH]ccc12` [Example 41, N-((1r,4r)-4-hydroxycyclohexyl)-6-(thiazol-5-yl)-1H-indole-4-carboxamide], the IC50 turned out to be 37 nM.
